{"source": "patent US5358951A", "about": "“Angiotensin II receptor blocking 2, 3, 6 substituted quinazolinones” (American Cyanamid Company, priority 1993, dated 1994)", "tested_on": "vasopressor response of angiotensin II", "assay": "AII Challenge: antagonism of angiotensin II vasopressor response;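 on Response Average Change: post-dose Angiotensin II-evoked rise in systolic blood pressure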", "type": "in vivo", "settings": "1 mg/kg i.v.; for inhibition in vivo at 1 mg/kg: Rattus norvegicus, iv", "summary_of_the_method": "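Conscious male SHR (16-20 weeks) with aortic and caval cannulae received angiotensin II at 0.05 and 0.1 ug/kg i.v. before and 30-300 min after compound dosing (i.v., i.p. or oral). Blockade is expressed as % of each rat's predose rise in systolic pressure.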", "data": [{"compound": "CCCCc1nc2ccc([C@@]3(c4ccccc4)C[C@@H]4CCCN4O3)cc2c(=O)n1Cc1ccc(-c2ccccc2-c2nnn[nH]2)cc1", "note": "(relative stereo) [Example 70, Cis-2-butyl-6-(hexahydro-2-phenylpyrrolo-[1,2-b]isoxazol-2-yl)-3-[[2'-(1H-tetrazol-5-yl)[1,1'-biphenyl]-4-yl]methyl]-4(3H)-quinazolinone]", "values": [{"measurement": "Response Average Change", "setting": "AII 0.05 mcg/kg IV, 30 min post dose", "value": 23.5, "unit": "mmHg"}, {"measurement": "Response Average Change", "setting": "AII 0.05 mcg/kg IV, 60 min post dose", "value": 12.5, "unit": "mmHg"}, {"measurement": "Response Average Change", "setting": "AII 0.05 mcg/kg IV, 90 min post dose", "value": 12.5, "unit": "mmHg"}, {"measurement": "Response Average Change", "setting": "AII 0.05 mcg/kg IV, 120 min post dose", "value": 20, "unit": "mmHg"}, {"measurement": "Response Average Change", "setting": "AII 0.05 mcg/kg IV, 180 min post dose", "value": 20, "unit": "mmHg"}, {"measurement": "Response Average Change", "setting": "AII 0.05 mcg/kg IV, 240 min post dose", "value": 27.5, "unit": "mmHg"}, {"measurement": "Response Average Change", "setting": "AII 0.05 mcg/kg IV, 300 min post dose", "value": 30, "unit": "mmHg"}, {"measurement": "Response Average Change", "setting": "AII 0.1 mcg/kg IV, 30 min post dose", "value": 30, "unit": "mmHg"}, {"measurement": "Response Average Change", "setting": "AII 0.1 mcg/kg IV, 60 min post dose", "value": 17.5, "unit": "mmHg"}, {"measurement": "Response Average Change", "setting": "AII 0.1 mcg/kg IV, 90 min post dose", "value": 30.5, "unit": "mmHg"}, {"measurement": "Response Average Change", "setting": "AII 0.1 mcg/kg IV, 120 min post dose", "value": 26, "unit": "mmHg"}, {"measurement": "Response Average Change", "setting": "AII 0.1 mcg/kg IV, 180 min post dose", "value": 30, "unit": "mmHg"}, {"measurement": "Response Average Change", "setting": "AII 0.1 mcg/kg IV, 240 min post dose", "value": 30, "unit": "mmHg"}, {"measurement": "Response Average Change", "setting": "AII 0.1 mcg/kg IV, 300 min post dose", "value": 37.5, "unit": "mmHg"}, {"measurement": "inhibition in vivo at 1 mg/kg", "setting": "0.5 h, AII 0.05 mcg/kg IV, 30 min post dose", "value": 48, "unit": "%"}, {"measurement": "inhibition in vivo at 1 mg/kg", "setting": "0.5 h, AII 0.1 mcg/kg IV, 30 min post dose", "value": 37, "unit": "%"}, {"measurement": "inhibition in vivo at 1 mg/kg", "setting": "1 h, AII 0.05 mcg/kg IV, 60 min post dose", "value": 72, "unit": "%"}, {"measurement": "inhibition in vivo at 1 mg/kg", "setting": "1 h, AII 0.1 mcg/kg IV, 60 min post dose", "value": 63, "unit": "%"}, {"measurement": "inhibition in vivo at 1 mg/kg", "setting": "2 h, AII 0.05 mcg/kg IV, 120 min post dose", "value": 56, "unit": "%"}, {"measurement": "inhibition in vivo at 1 mg/kg", "setting": "2 h, AII 0.1 mcg/kg IV, 120 min post dose", "value": 45, "unit": "%"}, {"measurement": "inhibition in vivo at 1 mg/kg", "setting": "3 h, AII 0.05 mcg/kg IV, 180 min post dose", "value": 56, "unit": "%"}, {"measurement": "inhibition in vivo at 1 mg/kg", "setting": "3 h, AII 0.1 mcg/kg IV, 180 min post dose", "value": 37, "unit": "%"}, {"measurement": "inhibition in vivo at 1 mg/kg", "setting": "4 h, AII 0.05 mcg/kg IV, 240 min post dose", "value": 39, "unit": "%"}, {"measurement": "inhibition in vivo at 1 mg/kg", "setting": "4 h, AII 0.1 mcg/kg IV, 240 min post dose", "value": 37, "unit": "%"}, {"measurement": "inhibition in vivo at 1 mg/kg", "setting": "5 h, AII 0.05 mcg/kg IV, 300 min post dose", "value": 33, "unit": "%"}, {"measurement": "inhibition in vivo at 1 mg/kg", "setting": "5 h, AII 0.1 mcg/kg IV, 300 min post dose", "value": 21, "unit": "%"}, {"measurement": "inhibition in vivo at 1 mg/kg", "setting": "[…], AII 0.05 mcg/kg IV, 90 min post dose", "value": 72, "unit": "%"}, {"measurement": "inhibition in vivo at 1 mg/kg", "setting": "[…], AII 0.1 mcg/kg IV, 90 min post dose", "value": 36, "unit": "%"}]}]}
